# Results: patent publication US4532327A, “Sesbanimide and the use thereof in treating leukemic tumors” (priority 1983, dated 1985)
# Read-outs that look alike come from different tables or passages of the source.
# How the values were obtained:
# [1] = system: lymphocytic leukemia cells of the strain P388 (PS tumors); experiment: lymphocytic leukemia P388 (PS tumors) implanted in mice (NCI Protocol 1.200); type: in vivo, mice (CDF1); details: active if ≥125%
# Description: As previously mentioned, the fractionation of Example 1 was also guided by assaying the effectiveness of the various fractions against lymphocytic leukemia cells of the strain P388 (PS tumors) implanted in mice. These assays were made according to the National Cancer Institute Protocol 1.200 described in Geran et al., supra, page 9. Starting 24 hr. after the tumor implantation, previously determined dosages of each fraction were injected intraperitoneally once a day for 9 days. Survival time of treated leukemic mice is compared to that of untreated leukemic mice (T/C×100). A T/C value of 100% indicated no activity. A T/C value greater than 100% means that the treated mice are surviving longer than the control mice. A fraction giving a T/C value greater than 125% is indicative of activity as defined by the NCI Protocols, above. Activities of the fractions comprising the pure or substantially pure sesbanimide isolates as reported in Table II establish the utility of the compounds as antileukemic agents.
# (§1) ^1 All hosts were type CDF1 mice. Six replicate mice were tested
# (§2) ^2 The doses are reported as micrograms per kilogram of host body
# (§3) weight per injection. The injection vehicle in all cases was water.
# (§4) ^3 T/C = mean survival time of test animals/mean survival time of
# (§5) control animals; 125% or above considered active.
# lymphoid leukemia L1210 = lymphoid leukemia L1210 in mice (NCI Protocol 1.100); type: in vivo; details: female CDF1 mice, active if ≥125%
# Description: This assay was conducted in accordance with the NCI Protocol 1.100 described in Geran et al., supra, page 7. Starting 24 hr. after the tumor implantation, predetermined doses of the compound were injected intraperitoneally once a day for 9 days.
# as §1, §2, §3, §4, §5
# KB Cell Culture = type: cell-based; details: Example 1 fractions, active if ED50 ≤30 μg./ml.
# Description: Chemotherapeutic Activity. The chemotherapeutic activities of the fractions obtained in the isolation procedure of Example 1 were determined in part by a KB Cell Culture Screen in accordance with the National Cancer Institute Protocol 1.600 [Geran et al., Cancer Chemother, Rep., Part 3, 3(2): 17 (1972)]. […] Such a dose is referred to as ED50 and activity is indicated for ED50 levels of ≤30 μg./ml.
# [2] = system: lymphocytic leukemia P388 (PS); details: attributed in U.S. Pat. No. 4,200,639 (disclaimed); cited from earlier work
# KB cell = details: attributed in U.S. Pat. No. 4,200,639 (disclaimed); cited from earlier work
compound,measurement,setting,value
C=C1COC(O)(C2OCOC(C3CC(=O)NC(=O)C3)C2O)C1C (stereo not drawn) [Sesbanimide A],T/C,"[1]; female CDF1 mice, 2.00 μg./kg./inj. i.p. once a day for 9 days",119%
same,T/C,"[1]; female CDF1 mice, 4.00 μg./kg./inj. i.p. once a day for 9 days",119%
same,T/C,"[1]; female CDF1 mice, 8.00 μg./kg./inj. i.p. once a day for 9 days",140%
same,T/C,"[1]; female CDF1 mice, 16.00 μg./kg./inj. i.p. once a day for 9 days",149%
same,T/C,"[1]; female CDF1 mice, 32.00 μg./kg./inj. i.p. once a day for 9 days",181%
same,T/C,lymphoid leukemia L1210; 16.00 μg./kg./inj. i.p. once a day for 9 days,116%
same,T/C,lymphoid leukemia L1210; 32.00 μg./kg./inj. i.p. once a day for 9 days,135%
same,T/C,lymphoid leukemia L1210; 64.00 μg./kg./inj. i.p. once a day for 9 days,toxic
same,ED50 (dose that inhibits growth to 50% of control growth by 3 days after drug addition),"KB Cell Culture; listed as K443, 4320 min",0.0077 mg/L
C=C1COC(O)(C2OCOC(C3CC(=O)NC(=O)C3)C2O)C1C (stereo not drawn) [Sesbanimide B],T/C,"[1]; male CDF1 mice, 1.87 μg./kg./inj. i.p. once a day for 9 days",157%
same,T/C,"[1]; male CDF1 mice, 3.75 μg./kg./inj. i.p. once a day for 9 days",161%
same,T/C,"[1]; male CDF1 mice, 7.50 μg./kg./inj. i.p. once a day for 9 days",toxic
same,ED50 (dose that inhibits growth to 50% of control growth by 3 days after drug addition),"KB Cell Culture; listed as K442, 4320 min",0.068 mg/L
O=C1NC(=O)[C@@]2(CC[C@@H](O)C2)c2ccncc21 [sesbanine],apparent activity in the PS tumor system,[2],result of a heretofore unidentified impurity
same,apparent activity in the KB cell screen,KB cell,result of a heretofore unidentified impurity
